Consider 6 compounds from article PMC5786472 (Cell, 2018).

The subject of assay [1] is E. coli K-12 strain W3110. It counts as cell-based, Escherichia coli.
For assay [2], the system named is E. coli conferring New-Delhi metallo-beta-lactamase (NDM) resistance. As to conditions: 10mM Tris (pH7.4) + 25mM NaCl, 20 hours, 37°C, at least 99.9% killing of inoculum; representative of three independent experiments.
Assay [3] relates to E. coli W3110, Acinetobacter baumannii (Ab 5075), Pseudomonas aeruginosa (PA14), NDM E. coli. As to conditions: 20 h.
The subject of the next assay is E. coli. The experiment in a line: SLAY screen of a defined library of five surface-displayed peptides. It counts as cell-based, Escherichia coli.

Where no end group is shown, it is not given here.

On to `CC(C)C[C@H](NC(=O)[C@H](CCCNC(=N)N)NC(=O)CNC(=O)CNC(=O)[C@@H](N)CCCNC(=N)N)C(=O)N[C@H]1CSSC[C@@H](C(=O)N[C@H](C(=O)NCC(=O)N[C@@H](CCCNC(=N)N)C(N)=O)C(C)C)NC(=O)[C@H](C(C)C)NC(=O)[C@@H]2CSSC[C@H](NC(=O)[C@H](Cc3ccc(O)cc3)NC1=O)C(=O)N[C@@H](CCCNC(=N)N)C(=O)N[C@@H](CCCNC(=N)N)C(=O)N[C@@H](CCCNC(=N)N)C(=O)N[C@@H](Cc1ccccc1)C(=O)N2` [Protegrin 1], for which the “effect of surface-displayed peptide on growth” value (from here on “effect”) in assay [1] is “strong antimicrobial activity”. On to DATPHAALFFTVKDHTAGDN [Peptide P15], for which the “MBC NDM E. coli” value in assay [2] is 64 µM. On the same count and under the same terms, the result for LPLPSCSSHGGDADNTSQRN [Peptide P11] reads 32 µM. Regarding RLVRILVSKRPVAIKPYFRL [Peptide P1], the “MBC over all bacteria tested” value in assay [3] is reported as “less than 2 μM”. With YPYDVPDYAAYPYDVPDYAA [Peptide 2xHA], the “effect” value in assay [1] was “grew similarly at all IPTG concentrations”. Further, in the assay with E. coli, the log2 fold was −0.01. Regarding dermaseptin, the “effect” value in assay [1] is “strong antimicrobial activity”.
